# Experimental data as given in patent US9738634B2, “Heterocyclic amide compound and herbicide” (SYNGENTA PARTICIPATIONS AG, priority 2013, dated 2017).
# Tests used:
# Assay type in all cases: in vivo
# Conditions in all cases: treatment dosage 320 g/ha
# [1] = system: oval-leafed pondweed; experiment: Test Example 1: weedkilling efficacy, preemergent weed treatment in the submerged state; C: oval-leafed pondweed
# Procedure, shortened: (§1)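 Pots of alluvial soil flooded 4 cm deep, sown with barnyard grass, bulrush and oval-leafed pondweed and transplanted with 2.5-leaf rice. Emulsified compound applied to the water surface on sowing day at stated g/ha; greenhouse 25–30 °C, effects assessed 3 weeks after treatment.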
# [2] = system: rapeseed; experiment: Test Example 4: foliar treatment, effect on crop; g: rapeseed
# Procedure, shortened: (§2)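 Seeds are spot-sown into sterilized diluvial soil and covered with about 1.5 cm of soil. After 14 days' greenhouse growth at 25 to 30° C, plants are sprayed on stems and leaves with diluted emulsion at the stated g/ha rate, then scored at 3 weeks.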
# [3] = system: redroot pigweed; experiment: Test Example 3: weedkilling efficacy through soil treatment; L: redroot pigweed
# Procedure, shortened: (§3)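 Crop and weed responses were judged three weeks after a uniform surface spray of the water-diluted emulsion at the given g/ha rate. Seeds sat beneath about 1.5 cm of sterilized diluvial soil, and boxes stood in a greenhouse at 25 to 30° C.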
# [4] = system: green foxtail; experiment: Test Example 4: weedkilling efficacy by foliar treatment; E: green foxtail
# Procedure, shortened: as §2
# [5] = system: corn; experiment: Test Example 4: foliar treatment, effect on crop; c: corn
# Procedure, shortened: as §2
# [6] = system: catchweed; experiment: Test Example 3: weedkilling efficacy through soil treatment; O: catchweed
# Procedure, shortened: as §3
# [7] = system: soybean; experiment: Test Example 3: soil treatment, effect on crop; d: soybean
# Procedure, shortened: as §3
# [8] = system: wheat; experiment: Test Example 4: foliar treatment, effect on crop; e: wheat
# Procedure, shortened: as §2
# [9] = system: directly sown rice; experiment: Test Example 4: foliar treatment, effect on crop; b: directly sown rice
# Procedure, shortened: as §2
# [10] = system: common wind-grass; experiment: Test Example 4: weedkilling efficacy by foliar treatment; J: common wind-grass
# Procedure, shortened: as §2
# [11] = system: barnyard grass; experiment: Test Example 4: weedkilling efficacy by foliar treatment; F: barnyard grass
# Procedure, shortened: as §2
# [12] = system: wheat; experiment: Test Example 3: soil treatment, effect on crop; e: wheat
# Procedure, shortened: as §3
# [13] = system: birds-eye speedwell; experiment: Test Example 4: weedkilling efficacy by foliar treatment; p: birds-eye speedwell
# Procedure, shortened: as §2
# [14] = system: beet; experiment: Test Example 4: foliar treatment, effect on crop; f: beet
# Procedure, shortened: as §2
# [15] = system: directly sown rice; experiment: Test Example 3: soil treatment, effect on crop; b: directly sown rice
# Procedure, shortened: as §3
# [16] = system: fig-leafed goosefoot; experiment: Test Example 3: weedkilling efficacy through soil treatment; M: fig-leafed goosefoot
# Procedure, shortened: as §3
# [17] = system: Indian mallow; experiment: Test Example 4: weedkilling efficacy by foliar treatment; K: Indian mallow
# Procedure, shortened: as §2
# [18] = system: rapeseed; experiment: Test Example 3: soil treatment, effect on crop; g: rapeseed
# Procedure, shortened: as §3
# [19] = system: common wind-grass; experiment: Test Example 3: weedkilling efficacy through soil treatment; J: common wind-grass
# Procedure, shortened: as §3
# [20] = system: barnyard grass; experiment: Test Example 1: weedkilling efficacy, preemergent weed treatment in the submerged state; A: barnyard grass
# Procedure, shortened: as §1
# [21] = system: oval-leafed pondweed; experiment: Test Example 2: weedkilling efficacy, growth period weed treatment in the submerged state; C: oval-leafed pondweed
# Procedure, shortened: (§4)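 Barnyard grass, bulrush and oval-leafed pondweed sown in alluvial soil under 4 cm flooding, greenhouse 25 to 30° C. At 1-2 leaf stage, water-diluted emulsion applied to the water surface at stated g/ha dosages; effects scored 3 weeks later.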
# [22] = system: chickweed; experiment: Test Example 4: weedkilling efficacy by foliar treatment; N: chickweed
# Procedure, shortened: as §2
# [23] = system: redroot pigweed; experiment: Test Example 4: weedkilling efficacy by foliar treatment; L: redroot pigweed
# Procedure, shortened: as §2
# [24] = system: Indian mallow; experiment: Test Example 3: weedkilling efficacy through soil treatment; K: Indian mallow
# Procedure, shortened: as §3
# [25] = system: wild oat; experiment: Test Example 4: weedkilling efficacy by foliar treatment; G: wild oat
# Procedure, shortened: as §2
# [26] = system: black-grass; experiment: Test Example 3: weedkilling efficacy through soil treatment; H: black-grass
# Procedure, shortened: as §3
# [27] = system: barnyard grass; experiment: Test Example 3: weedkilling efficacy through soil treatment; F: barnyard grass
# Procedure, shortened: as §3
# [28] = system: soybean; experiment: Test Example 4: foliar treatment, effect on crop; d: soybean
# Procedure, shortened: as §2
# [29] = system: crabgrass; experiment: Test Example 3: weedkilling efficacy through soil treatment; D: crabgrass
# Procedure, shortened: as §3
# [30] = system: beet; experiment: Test Example 3: soil treatment, effect on crop; f: beet
# Procedure, shortened: as §3
# [31] = system: birds-eye speedwell; experiment: Test Example 3: weedkilling efficacy through soil treatment; p: birds-eye speedwell
# Procedure, shortened: as §3
# [32] = system: transplanted rice; experiment: Test Example 1: preemergent weed treatment in the submerged state, effect on crop; a: transplanted rice
# Procedure, shortened: as §1
# [33] = system: chickweed; experiment: Test Example 3: weedkilling efficacy through soil treatment; N: chickweed
# Procedure, shortened: as §3
# [34] = system: black-grass; experiment: Test Example 4: weedkilling efficacy by foliar treatment; H: black-grass
# Procedure, shortened: as §2
# [35] = system: crabgrass; experiment: Test Example 4: weedkilling efficacy by foliar treatment; D: crabgrass
# Procedure, shortened: as §2
# [36] = system: bulrush; experiment: Test Example 2: weedkilling efficacy, growth period weed treatment in the submerged state; B: bulrush
# Procedure, shortened: as §4
# [37] = system: barnyard grass; experiment: Test Example 2: weedkilling efficacy, growth period weed treatment in the submerged state; A: barnyard grass
# Procedure, shortened: as §4
# [38] = system: Italian ryegrass; experiment: Test Example 4: weedkilling efficacy by foliar treatment; I: Italian ryegrass
# Procedure, shortened: as §2
# [39] = system: wild oat; experiment: Test Example 3: weedkilling efficacy through soil treatment; G: wild oat
# Procedure, shortened: as §3
# [40] = system: Italian ryegrass; experiment: Test Example 3: weedkilling efficacy through soil treatment; I: Italian ryegrass
# Procedure, shortened: as §3
# [41] = system: corn; experiment: Test Example 3: soil treatment, effect on crop; c: corn
# Procedure, shortened: as §3
# [42] = system: green foxtail; experiment: Test Example 3: weedkilling efficacy through soil treatment; E: green foxtail
# Procedure, shortened: as §3
# [43] = system: catchweed; experiment: Test Example 4: weedkilling efficacy by foliar treatment; O: catchweed
# Procedure, shortened: as §2
# [44] = system: bulrush; experiment: Test Example 1: weedkilling efficacy, preemergent weed treatment in the submerged state; B: bulrush
# Procedure, shortened: as §1
structure (smiles),measurement,setting,value
CC1=C(c2ccccc2)C(=O)N(C(C)(C)C(=O)Nc2cccc(CF)n2)CO1 [B-2-56],C (oval-leafed pondweed) weedkilling efficacy grade,[1],"5 (weed kill ratio 90% or more, (practically complete withering))"
same,g (rapeseed) effect on crop grade,[2],"3 (weed kill ratio 40% or more, less than 70%)"
same,L (redroot pigweed) weedkilling efficacy grade,[3],"2 (weed kill ratio 20% or more, less than 40%)"
same,E (green foxtail) weedkilling efficacy grade,[4],"5 (weed kill ratio 90% or more, (practically complete withering))"
same,c (corn) effect on crop grade,[5],"5 (weed kill ratio 90% or more, (practically complete withering))"
same,O (catchweed) weedkilling efficacy grade,[6],"5 (weed kill ratio 90% or more, (practically complete withering))"
same,d (soybean) effect on crop grade,[7],0 (weed kill ratio 5% or less (practically no effect))
same,e (wheat) effect on crop grade,[8],"3 (weed kill ratio 40% or more, less than 70%)"
same,b (directly sown rice) effect on crop grade,[9],"4 (weed kill ratio 70% or more, less than 90%)"
same,J (common wind-grass) weedkilling efficacy grade,[10],"5 (weed kill ratio 90% or more, (practically complete withering))"
same,F (barnyard grass) weedkilling efficacy grade,[11],"4 (weed kill ratio 70% or more, less than 90%)"
same,e (wheat) effect on crop grade,[12],"1 (weed kill ratio 5% or more, less than 20%)"
same,P (birds-eye speedwell) weedkilling efficacy grade,[13],"4 (weed kill ratio 70% or more, less than 90%)"
same,f (beet) effect on crop grade,[14],"3 (weed kill ratio 40% or more, less than 70%)"
same,b (directly sown rice) effect on crop grade,[15],"2 (weed kill ratio 20% or more, less than 40%)"
same,M (fig-leafed goosefoot) weedkilling efficacy grade,[16],"4 (weed kill ratio 70% or more, less than 90%)"
same,K (Indian mallow) weedkilling efficacy grade,[17],0 (weed kill ratio 5% or less (practically no effect))
same,g (rapeseed) effect on crop grade,[18],"1 (weed kill ratio 5% or more, less than 20%)"
same,J (common wind-grass) weedkilling efficacy grade,[19],"5 (weed kill ratio 90% or more, (practically complete withering))"
same,A (barnyard grass) weedkilling efficacy grade,[20],"5 (weed kill ratio 90% or more, (practically complete withering))"
same,C (oval-leafed pondweed) weedkilling efficacy grade,[21],"5 (weed kill ratio 90% or more, (practically complete withering))"
same,N (chickweed) weedkilling efficacy grade,[22],"4 (weed kill ratio 70% or more, less than 90%)"
same,L (redroot pigweed) weedkilling efficacy grade,[23],"3 (weed kill ratio 40% or more, less than 70%)"
same,K (Indian mallow) weedkilling efficacy grade,[24],0 (weed kill ratio 5% or less (practically no effect))
same,G (wild oat) weedkilling efficacy grade,[25],"5 (weed kill ratio 90% or more, (practically complete withering))"
same,H (black-grass) weedkilling efficacy grade,[26],"5 (weed kill ratio 90% or more, (practically complete withering))"
same,F (barnyard grass) weedkilling efficacy grade,[27],"5 (weed kill ratio 90% or more, (practically complete withering))"
same,d (soybean) effect on crop grade,[28],"4 (weed kill ratio 70% or more, less than 90%)"
same,D (crabgrass) weedkilling efficacy grade,[29],"5 (weed kill ratio 90% or more, (practically complete withering))"
same,f (beet) effect on crop grade,[30],"2 (weed kill ratio 20% or more, less than 40%)"
same,P (birds-eye speedwell) weedkilling efficacy grade,[31],"5 (weed kill ratio 90% or more, (practically complete withering))"
same,a (transplanted rice) effect on crop grade,[32],"1 (weed kill ratio 5% or more, less than 20%)"
same,N (chickweed) weedkilling efficacy grade,[33],"4 (weed kill ratio 70% or more, less than 90%)"
same,H (black-grass) weedkilling efficacy grade,[34],"4 (weed kill ratio 70% or more, less than 90%)"
same,D (crabgrass) weedkilling efficacy grade,[35],"5 (weed kill ratio 90% or more, (practically complete withering))"
same,B (bulrush) weedkilling efficacy grade,[36],"5 (weed kill ratio 90% or more, (practically complete withering))"
same,A (barnyard grass) weedkilling efficacy grade,[37],"5 (weed kill ratio 90% or more, (practically complete withering))"
same,I (Italian ryegrass) weedkilling efficacy grade,[38],"5 (weed kill ratio 90% or more, (practically complete withering))"
same,G (wild oat) weedkilling efficacy grade,[39],"3 (weed kill ratio 40% or more, less than 70%)"
same,I (Italian ryegrass) weedkilling efficacy grade,[40],"5 (weed kill ratio 90% or more, (practically complete withering))"
same,c (corn) effect on crop grade,[41],"1 (weed kill ratio 5% or more, less than 20%)"
same,E (green foxtail) weedkilling efficacy grade,[42],"5 (weed kill ratio 90% or more, (practically complete withering))"
same,O (catchweed) weedkilling efficacy grade,[43],"4 (weed kill ratio 70% or more, less than 90%)"
same,B (bulrush) weedkilling efficacy grade,[44],"5 (weed kill ratio 90% or more, (practically complete withering))"
